Test results taken from US10160772B2, “5,6-dihydro-4H-benzo[b]thieno-[2,3-d]azepine derivatives” (PULMOCIDE LIMITED, priority 2014, dated 2018).
Read-outs that look alike come from different tables or passages of the source. Blank lines part the entries; values can stand above or below the molecule they belong to.

Columns and labels:
Assay type in all cases: cell-based
[1] = tested on: RSV A2 strain; assay: RSV A2-induced CPE in Hep2 cells; settings: human respiratory syncytial virus; for IC50: HEp-2, 120 h, read-out: RSV A2 CPE IC50; for inhibition at 0.01 µg/mL: at 0.01 μg/mL (footnote 2)
Description: (§1) Biological Testing: Experimental Methods Assessment of RSV Induced CPE in Hep2 Cells
(§2) Hep2 cells were seeded (10^3/well/50 μL) in 384-well plates (Catalogue number 353962, BD Falcon, Oxford, UK) in 5% serum free-DMEM containing 2 mM L-glutamine and 1 mM sodium pyruvate one day before infection. RSV A2 strain (#0709161v, NCPV, Public Health England, Wiltshire) or RSV B Washington strain (VR-1580, ATCC, Manassas, Va. 20108) virus solutions were prepared in serum free-DMEM with 2 mM L-glutamine and 1 mM sodium pyruvate, and then added (50 μL/well) to achieve a final virus concentration of 1 MOI for RSV A and 0.1MOI for RSV B. Simultaneously test compounds (0.5 μL DMSO solution) were added to 100 μL of Hep2 cell culture with virus solution to provide a final DMSO solution of 0.5%. Plates were incubated (37° C./5% CO2) for 5 days for studies using RSV A2 strain or 6 days for those using RSV B strain, and then resazurin sodium salt (5 μL of 0.03% solution; Sigma-Aldrich, Dorset, UK) was added to each well and the plate incubated for a further 6 hr (37° C. and 5% CO2). The fluorescence of each well [545 nm (excitation)/590 nm (emission)] was determined using a multi-scanner (Clariostar: BMG, Buckinghamshire, UK). The percentage inhibition for each well was calculated and the IC50, IC75 and IC90 values were calculated from the concentration-response curve generated for each test compound.

[2] = tested on: RSV B Washington strain; assay: RSV B-induced CPE in Hep2 cells; settings: human respiratory syncytial virus; for IC50: HEp-2, 144 h, read-out: RSV B CPE IC50
Description: as §1, §2

[3] = Cell viability: resazurin assay in Hep2 cells; settings: human, 5 days incubation
Description: Cell Viability: Resazurin Assay Hep2 cells were seeded in 384-well plates (10^3/well/50 μL; BD Falcon Ref 353962) in FBS DMEM (5%, containing 2 mM L-glutamine and 1 mM sodium pyruvate) one day before experimentation. Serum-free DMEM (50 μL) was added to test wells while for control wells the media was removed and sterile water (100 μL) was added. Test compounds (0.5 μL DMSO solution) were added to give a final DMSO concentration of 0.5%. Hep2 cells were incubated with each test compound for 5 days (37° C./5% CO2 in 5% FBS) and then resazurin stock solution (5 μL; 0.03%) was added to each well and the plate incubated further for a further 6 hrs (37° C./5% CO2). The fluorescence of each well at 545 nm (excitation) and 590 nm (emission) was determined using a multi-scanner (Clariostar: BMG Labtech). The percentage loss of cell viability was calculated for each well relative to vehicle (0.5% DMSO) treatment. Where appropriate, a CC50 value was calculated from the concentration-response curve generated from the concentration-response curve for each test compound.

[4] = Hep2 cells, RSV A2 1 MOI, 5 days, resazurin
[5] = HEp-2, Hep2 cells, at 0.1 μg/mL, read-out: RSV A2 CPE % Inhibition
[6] = Hep2 cells, RSV B Washington 0.1 MOI, 6 days, resazurin
[7] = HEp-2, Hep2 cells, at 1 μg/mL, read-out: RSV B CPE % Inhibition
[8] = HEp-2, Hep2 cells, read-out: RSV A2 CPE % Inhibition

SMILES: Cc1cc(C(=O)Nc2ccc(C(=O)N3CCc4cc(-c5nc6cccc(C)c6[nH]5)sc4-c4ccccc43)cc2)c(N2CC3(CCOCC3)C2)nc1C [Example 24]
- IC50 [1, 4]: 0.85 nM
- inhibition at 0.1 µg/mL [1, 5]: 100%
- IC50 [2, 6]: 27.3 nM
- inhibition at 1 µg/mL [2, 7]: 100%
- CC50 at 5 days [3]: > 14100 nM

SMILES: Cc1cnc(N2CC3(CCOCC3)C2)c(C(=O)Nc2ccc(C(=O)N3CCc4cc(-c5nc6cccc(C)c6[nH]5)sc4-c4ccccc43)cc2)c1 [Example 16, 5-methyl-N-(4-(2-(7-methyl-1H-benzo[d]imidazol-2-yl)-5,6-dihydro-4H-benzo[b]thieno[2,3-d]azepine-6-carbonyl)phenyl)-2-(7-oxa-2-azaspiro[3.5]nonan-2-yl)nicotinamide]
- IC50 [1, 4]: 0.11 nM
- inhibition at 0.1 µg/mL [1, 5]: 100%
- IC50 [2, 6]: 16 nM
- inhibition at 1 µg/mL [2, 7]: 99%
- CC50 at 5 days [3]: > 14400 nM

SMILES: Cc1cnc(N2CC3(CCOCC3)C2)c(C(=O)Nc2ccc(C(=O)N3CCc4cc(-c5nc6cc(F)cc(F)c6[nH]5)sc4-c4ccccc43)cc2)c1 [Example 19, N-(4-(2-(5,7-difluoro-1H-benzo[d]imidazol-2-yl)-5,6-dihydro-4H-benzo[b]thieno[2,3-d]azepine-6-carbonyl)phenyl)-5-methyl-2-(7-oxa-2-azaspiro[3.5]nonan-2-yl)nicotinamide]
- IC50 [1, 4]: 0.96 nM
- inhibition at 0.01 µg/mL [1, 8]: 88%
- IC50 [2, 6]: 6.3 nM
- inhibition at 1 µg/mL [2, 7]: 100%
- CC50 at 5 days [3]: > 14000 nM

SMILES: Cc1cnc(N2CC3(CCOCC3)C2)c(C(=O)Nc2ccc(C(=O)N3CCc4cc(-c5nc6ccccc6[nH]5)sc4-c4ccccc43)cc2)c1 [Example 13, N-(4-(2-(1H-benzo[d]imidazol-2-yl)-5,6-dihydro-4H-benzo[b]thieno[2,3-d]azepine-6-carbonyl)phenyl)-5-methyl-2-(7-oxa-2-azaspiro[3.5]nonan-2-yl)nicotinamide]
- IC50 [1, 4]: 0.085 nM
- inhibition at 0.1 µg/mL [1, 5]: 100%
- IC50 [2, 6]: 0.99 nM
- inhibition at 1 µg/mL [2, 7]: 100%
- CC50 at 5 days [3]: > 14700 nM

SMILES: Cc1cnc(N2CC3(CCOCC3)C2)c(C(=O)Nc2ccc(C(=O)N3CCc4cc(-c5nc6cccc(Cl)c6[nH]5)sc4-c4ccccc43)cc2)c1 [Example 15, N-(4-(2-(7-chloro-1H-benzo[d]imidazol-2-yl)-5,6-dihydro-4H-benzo[b]thieno[2,3-d]azepine-6-carbonyl)phenyl)-5-methyl-2-(7-oxa-2-azaspiro[3.5]nonan-2-yl)nicotinamide]
- IC50 [1, 4]: 0.17 nM
- inhibition at 0.1 µg/mL [1, 5]: 85%
- IC50 [2, 6]: 83.3 nM
- inhibition at 1 µg/mL [2, 7]: 100%
- CC50 at 5 days [3]: > 14000 nM

SMILES: Cc1cccc2nc(-c3cc4c(s3)-c3ccccc3N(C(=O)c3ccc(NC(=O)c5cccnc5N5CC6(CCOCC6)C5)cc3)CC4)[nH]c12 [Example 1, N-(4-(2-(7-Methyl-1H-benzo[d]imidazol-2-yl)-5,6-dihydro-4H-benzo[b]thieno[2,3-d]azepine-6-carbonyl)phenyl)-2-(7-oxa-2-azaspiro[3.5]nonan-2-yl)nicotinamide]
- IC50 [1]: 0.21 nM
- inhibition at 0.1 µg/mL ([1]; HEp-2, read-out: RSV A2 CPE % Inhibition): 100%
- IC50 [2]: 84.7 nM
- inhibition at 1 µg/mL ([2]; HEp-2, read-out: RSV B CPE % Inhibition): 100%
- CC50 at 5 days [3]: > 14700 nM

SMILES: Cc1cc(C(=O)Nc2ccc(C(=O)N3CCc4cc(-c5nc6cccc(C#N)c6[nH]5)sc4-c4ccccc43)cc2)c(N2CC3(CCOCC3)C2)nc1C [Example 25, N-(4-(2-(7-cyano-1H-benzo[d]imidazol-2-yl)-5,6-dihydro-4H-benzo[b]thieno[2,3-d]azepine-6-carbonyl)phenyl)-5,6-dimethyl-2-(7-oxa-2-azaspiro[3.5]nonan-2-yl)nicotinamide]
- IC50 [1, 4]: 0.69 nM
- inhibition at 0.01 µg/mL [1, 8]: 100%
- IC50 [2, 6]: 15.8 nM
- inhibition at 1 µg/mL [2, 7]: 100%
- CC50 at 5 days [3]: > 13900 nM

Continued by falling IC50 [1, 4], values first:

- IC50 [1, 4]: 1.6 nM
- IC50 [2, 6]: 14 nM
SMILES: Cc1cc(C(=O)Nc2ccc(C(=O)N3CCc4cc(-c5nc6cccc(F)c6[nH]5)sc4-c4ccccc43)cc2)c(N2CC3(CCOCC3)C2)nc1C [Example 22, N-(4-(2-(7-fluoro-1H-benzo[d]imidazol-2-yl)-5,6-dihydro-4H-benzo[b]thieno[2,3-d]azepine-6-carbonyl)phenyl)-5,6-dimethyl-2-(7-oxa-2-azaspiro[3.5]nonan-2-yl)nicotinamide]
- inhibition at 0.01 µg/mL [1, 8]: 90%
- inhibition at 1 µg/mL [2, 7]: 100%
- CC50 at 5 days [3]: > 14000 nM

- IC50 [1, 4]: 0.67 nM
- IC50 [2, 6]: 44.1 nM
SMILES: O=C(Nc1ccc(C(=O)N2CCc3cc(-c4nc5cccc(Cl)c5[nH]4)sc3-c3ccccc32)cc1)c1cccnc1N1CC2(CCOCC2)C1 [Example 9, N-(4-(2-(7-chloro-1H-benzo[d]imidazol-2-yl)-5,6-dihydro-4H-benzo[b]thieno[2,3-d]azepine-6-carbonyl)phenyl)-2-(7-oxa-2-azaspiro[3.5]nonan-2-yl)nicotinamide]
- inhibition at 0.1 µg/mL [1, 5]: 100%
- inhibition at 1 µg/mL [2, 7]: 100%
- CC50 at 5 days [3]: > 14300 nM

- IC50 [1, 4]: 0.29 nM
- IC50 [2, 6]: 15 nM
SMILES: Cc1cnc(N2CC3(CCOCC3)C2)c(C(=O)Nc2ccc(C(=O)N3CCc4cc(-c5nc6cccc(C)c6[nH]5)sc4-c4ccccc43)c(F)c2)c1 [Example 27, N-(3-fluoro-4-(2-(7-methyl-1H-benzo[d]imidazol-2-yl)-5,6-dihydro-4H-benzo[b]thieno[2,3-d]azepine-6-carbonyl)phenyl)-5-methyl-2-(7-oxa-2-azaspiro[3.5]nonan-2-yl)nicotinamide]
- inhibition at 0.1 µg/mL [1, 5]: 90%
- inhibition at 1 µg/mL [2, 7]: 80%
- CC50 at 5 days [3]: > 14000 nM

- IC50 [1, 4]: 0.27 nM
- IC50 [2, 6]: 12 nM
SMILES: Cc1cnc(N2CC3(CCOCC3)C2)c(C(=O)Nc2ccc(C(=O)N3CCc4cc(-c5nc6ccccc6[nH]5)sc4-c4ccccc43)c(F)c2)c1 [Example 26, N-(4-(2-(1H-benzo[d]imidazol-2-yl)-5,6-dihydro-4H-benzo[b]thieno[2,3-d]azepine-6-carbonyl)-3-fluorophenyl)-5-methyl-2-(7-oxa-2-azaspiro[3.5]nonan-2-yl)nicotinamide]
- inhibition at 0.01 µg/mL [1, 8]: 100%
- inhibition at 1 µg/mL [2, 7]: 100%
- CC50 at 5 days [3]: > 14300 nM

- IC50 [1, 4]: 0.18 nM
- IC50 [2, 6]: 26.8 nM
SMILES: O=C(Nc1ccc(C(=O)N2CCc3cc(-c4nc5cccc(F)c5[nH]4)sc3-c3ccccc32)cc1)c1cccnc1N1CC2(CCOCC2)C1 [Example 8, N-(4-(2-(7-fluoro-1H-benzo[d]imidazol-2-yl)-5,6-dihydro-4H-benzo[b]thieno[2,3-d]azepine-6-carbonyl)phenyl)-2-(7-oxa-2-azaspiro[3.5]nonan-2-yl)nicotinamide]
- inhibition at 0.1 µg/mL [1, 5]: 100%
- inhibition at 1 µg/mL [2, 7]: 100%
- CC50 at 5 days [3]: > 14600 nM

- IC50 [1, 4]: 0.11 nM
- IC50 [2, 6]: 13.2 nM
SMILES: Cc1cnc(N2CC3(CCOCC3)C2)c(C(=O)Nc2ccc(C(=O)N3CCc4cc(-c5nc6cccc(C(F)(F)F)c6[nH]5)sc4-c4ccccc43)cc2)c1 [Example 17, 5-methyl-2-(7-oxa-2-azaspiro[3.5]nonan-2-yl)-N-(4-(2-(7-(trifluoromethyl)-1H-benzo[d]imidazol-2-yl)-5,6-dihydro-4H-benzo[b]thieno[2,3-d]azepine-6-carbonyl)phenyl)nicotinamide]
- inhibition at 0.1 µg/mL [1, 5]: 100%
- inhibition at 1 µg/mL [2, 7]: 100%
- CC50 at 5 days [3]: > 13400 nM

- IC50 [1, 4]: 0.094 nM
- IC50 [2, 6]: 7.6 nM
SMILES: Cc1ccc(C(=O)Nc2ccc(C(=O)N3CCc4cc(-c5nc6cccc(F)c6[nH]5)sc4-c4ccccc43)cc2)c(N2CC3(CCOCC3)C2)n1 [Example 20, N-(4-(2-(7-fluoro-1H-benzo[d]imidazol-2-yl)-5,6-dihydro-4H-benzo[b]thieno[2,3-d]azepine-6-carbonyl)phenyl)-6-methyl-2-(7-oxa-2-azaspiro[3.5]nonan-2-yl)nicotinamide]
- inhibition at 0.1 µg/mL [1, 5]: 100%
- inhibition at 1 µg/mL [2, 7]: 100%
- CC50 at 5 days [3]: > 14300 nM
